Experimental findings from patent publication US11919883B2, “Metalloenzyme inhibitor compounds” (Ji Xing Pharmaceuticals Hong Kong Limited, priority 2016, dated 2024) are described below.

A short description of series [1]: Cyno liver microsome stability. The format is in vitro ADME, cynomolgus monkey. To be noted: for Cyno LM Stability: % Compound remaining at 65 min in cyno liver microsomes.
Series [2] addresses T1, recombinant human CYP11B1 (Homo sapiens, UniProt P15538).
T1 construct: made in house; host or cells: V79-4 cells (enzyme enriched microsomal fraction of cell lysates)
T1 sequence (P15538 25-503): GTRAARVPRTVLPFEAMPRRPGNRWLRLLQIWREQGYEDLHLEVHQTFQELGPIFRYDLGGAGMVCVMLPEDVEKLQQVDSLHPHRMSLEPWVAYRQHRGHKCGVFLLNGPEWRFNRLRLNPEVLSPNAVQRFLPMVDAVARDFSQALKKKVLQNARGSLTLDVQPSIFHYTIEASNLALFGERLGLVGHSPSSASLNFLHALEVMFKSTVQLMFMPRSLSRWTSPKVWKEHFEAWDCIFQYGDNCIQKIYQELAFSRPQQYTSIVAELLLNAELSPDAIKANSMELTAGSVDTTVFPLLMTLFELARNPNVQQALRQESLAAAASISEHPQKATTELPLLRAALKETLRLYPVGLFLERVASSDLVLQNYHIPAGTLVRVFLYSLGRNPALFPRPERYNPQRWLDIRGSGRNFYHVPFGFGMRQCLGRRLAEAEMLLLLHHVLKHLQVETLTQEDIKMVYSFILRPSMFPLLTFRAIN
Description: CYP11B1 enzyme assay, enzyme enriched microsomes from V79-4 cells, cortisol by LC-MS. The format is biochemical.
Description: (§1) An enzyme enriched microsomal fraction was prepared from cellular lysates and subsequently used as the enzyme source for determining inhibitor IC50s. […] Enzyme assays for inhibitor screening employed CYP11B2 and CYP11B1 enzyme enriched microsomes and were run at the Km of the respective substrates. Products of the enzyme reactions, aldosterone for CYP11B2 or cortisol for CYP11B1, were measured by LC-MS. Assays were run under conditions of less than 20% substrate turnover. Inhibitor IC50s were generated by determining the product formation in the absence or presence of inhibitor at various concentrations. In the absence of the test compound, the product formed (Pt) in each data set was defined as 100% activity. In the absence of enzyme, the product formed (Pb) in each data set was defined as 0% activity. The percent activity in the presence of each inhibitor was calculated according to the following equation: % activity=(P−Pb)/(Pt−Pb), where P=the product formed in the presence of the inhibitor.

The target in series [3] is T2, recombinant human CYP11B2 (Homo sapiens, UniProt P19099).
T2 construct: made in house; host or cells: V79-4 cells (enzyme enriched microsomal fraction of cell lysates)
T2 sequence (P19099 25-503): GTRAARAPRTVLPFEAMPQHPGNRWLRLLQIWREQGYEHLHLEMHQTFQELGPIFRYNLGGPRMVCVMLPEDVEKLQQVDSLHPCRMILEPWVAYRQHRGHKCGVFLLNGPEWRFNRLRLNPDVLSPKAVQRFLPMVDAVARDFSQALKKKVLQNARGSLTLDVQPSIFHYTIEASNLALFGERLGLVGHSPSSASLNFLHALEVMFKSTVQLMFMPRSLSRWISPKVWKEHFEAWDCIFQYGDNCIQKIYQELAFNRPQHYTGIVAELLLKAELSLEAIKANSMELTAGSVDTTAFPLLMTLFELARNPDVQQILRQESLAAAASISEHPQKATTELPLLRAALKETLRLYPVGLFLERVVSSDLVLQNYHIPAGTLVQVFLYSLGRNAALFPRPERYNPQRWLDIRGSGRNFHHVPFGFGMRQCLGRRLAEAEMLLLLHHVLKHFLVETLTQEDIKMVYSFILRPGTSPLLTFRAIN
Description: CYP11B2 enzyme assay, enzyme enriched microsomes from V79-4 cells, aldosterone by LC-MS. The format is biochemical.
Description: as §1

A short description of series [4]: Rat liver microsome stability. To be noted: % Compound remaining at 65 min in rat liver microsomes. The format is in vitro ADME. On the technique in general: Microsomes from liver hold many membrane-bound enzymes, among them those of drug oxidation.
Series [5] in a line: Cyno half life after PO dose. Set-up: species or system cynomolgus monkeys. To be noted: cynomolgus monkey.
Setting [6] is: IC50 ranges, run at Km of 11-deoxycortisol, read-out: hCYP11B1 IC50.
The mark [7] stands for this setting: Table 3 comparison, read-out: CYP11B1 IC50.
[8] abbreviates: IC50 ranges, run at Km of 11-deoxycorticosterone, read-out: hCYP11B2 IC50.
Where [9] appears, read: Table 3 comparison, read-out: CYP11B2 IC50.

Structures are written as SMILES. Read-outs that look alike come from different tables or passages of the source.

On to `Fc1ccc2nc(-c3cncnc3)n(C3CC3)c2c1` [Example 1, 1-Cyclopropyl-6-fluoro-2-(pyrimidin-5-yl)-1H-benzo[d]imidazole], for which the “Cyno LM Stability” value in series [1] stood at 70%. Further, the 50% inhibitory concentration (IC50) (commonly the point on the concentration scale where inhibition reaches its midpoint) in series [2] (setting [6]) is 1 to 10 µM; in series [2] (setting [7]) it was 5.38 µM; in series [3] (setting [8]) it was 1 to 100 nM; in series [3] (setting [9]) it was 40 nM. Besides, in series [3] (CYP11B1 IC50/CYP11B2 IC50), the Selectivity was 134. For the same molecule, the “Rat LM Stability” value in series [4] was found to be 0%.

Take `Fc1cc2nc(-c3cncnc3C(F)F)n(C3CC3)c2cc1F` [Example 27, 1-Cyclopropyl-2-(4-(difluoromethyl)pyrimidin-5-yl)-5,6-difluoro-1H-benzo[d]imidazole]: the “Cyno LM Stability” value in series [1] stood at 106%. The “metabolic stability when exposed to cynomolgus monkey liver microsomes” value in series [1] (compared with pyridine counterpart Example 76) was “much greater metabolic stability”. Moreover, the IC50 is 1 to 10 µM in series [2] (setting [6]), 4.72 µM in series [2] (setting [7]), 1 to 100 nM in series [3] (setting [8]) and 17 nM in series [3] (setting [9]). Further, the “in vivo half-lives in cynomolgus monkeys” value in series [5] is “long in vivo half-lives”. For the same molecule, in series [5] (in vivo, 1 mg/kg PO dose, read-out: Cyno T½ (converted)), the half-life is 1010 min.

For the molecule `CCn1c(-c2cncnc2C(F)(F)F)nc2ccc(C#N)cc21` [Example 53, 2-(4-(trifluoromethyl)pyrimidin-5-yl)-1-ethyl-1H-benzo[d]imidazole-6-carbonitrile], the IC50 in series [2] (setting [6]) is 1 to 10 µM; in series [3] (setting [8]), 1 to 100 nM.

Consider `N#Cc1ccc2nc(-c3cncnc3C(F)F)n(C3CC3)c2c1` [Example 54, 1-Cyclopropyl-2-(4-(difluoromethyl)pyrimidin-5-yl)-1H-benzo[d]imidazole-6-carbonitrile], for which the values for the IC50 in series [2] (setting [6]) and in series [3] (setting [8]) were 1 to 10 µM and 1 to 100 nM, respectively.

Regarding `Cc1ncncc1-c1nc2cnc(Cl)cc2n1C1CC1` [Example 55, 6-Chloro-1-cyclopropyl-2-(4-methylpyrimidin-5-yl)-1H-imidazo[4,5-c]pyridine], the IC50 in series [2] (setting [6]) was greater than 10 µM; in series [3] (setting [8]) it was 100 to 1000 nM.

As for `Cc1ncncc1-c1nc2cnc(C#N)cc2n1C1CC1` [Example 56, 1-Cyclopropyl-2-(4-methylpyrimidin-5-yl)-1H-imidazo[4,5-c]pyridine-6-carbonitrile], the results for the IC50 in series [2] (setting [6]) and in series [3] (setting [8]) were greater than 10 µM and 100 to 1000 nM, respectively.

Turning to `c1ncc(-c2nc3c(n2C2CC2)CCCC3)cn1` [Example 57, 1-Cyclopropyl-2-(pyrimidin-5-yl)-4,5,67-tetrahydro-1H-benzo[d]imidazole], the IC50 in series [2] (setting [6]) is greater than 10 µM; in series [3] (setting [8]) it was 1000 to 10000 nM.

Consider `COc1ccc2nc(-c3cncnc3C)n(C3CC3)c2n1` [Example 58, 3-Cyclopropyl-5-methoxy-2-(4-methylpyrimidin-5-yl)-3H-imidazo[4,5-b]pyridine], for which the IC50 is greater than 10 µM in series [2] (setting [6]) and 100 to 1000 nM in series [3] (setting [8]).

Consider `CC(=O)NCCc1ncncc1-c1nc2cc(F)c(F)cc2n1C1CC1` [Example 59, N-(2-(5-(1-Cyclopropyl-5,6-difluoro-1H-benzo[d]imidazol-2-yl)pyrimidin-4-yl)ethyl)acetamide], for which the IC50 in series [2] (setting [6]) was greater than 10 µM; in series [3] (setting [8]), 1000 to 10000 nM.

In the case of `N#Cc1ccc2nc(-c3cncnc3C(F)(F)F)n(C3CC3)c2c1` [Example 60, 1-Cyclopropyl-2-(4-(trifluoromethyl)pyrimidin-5-yl)-1H-benzo[d]imidazole-6-carbonitrile], the values for the IC50 in series [2] (setting [6]) and in series [3] (setting [8]) were 1 to 10 µM and 1 to 100 nM, respectively.

Regarding `FC(F)(F)c1ncncc1-c1nc2ccc(Cl)nc2n1C1CC1` [Example 61, 5-Chloro-3-cyclopropyl-2-(4-(trifluoromethyl)pyrimidin-5-yl)-3H-imidazo[4,5-b]pyridine], the half-inhibitory concentration (IC50) lay in the range of 1 to 10 µM in series [2] (setting [6]) and 1 to 100 nM in series [3] (setting [8]).

For `FC(F)c1ncncc1-c1nc2ccc(Cl)nc2n1C1CC1` [Example 62, 5-Chloro-3-cyclopropyl-2-(4-(difluoromethyl)pyrimidin-5-yl)-3H-imidazo[4,5-b]pyridine], the IC50 in series [2] (setting [6]) fell in the range of 1 to 10 µM; in series [3] (setting [8]) it was 100 to 1000 nM.

In the case of `N#Cc1ccc2nc(-c3cncnc3C(F)F)n(C3CC3)c2n1` [Example 63, 3-Cyclopropyl-2-(4-(difluoromethyl)pyrimidin-5-yl)-3H-imidazo[4,5-b]pyridine-5-carbonitrile], the IC50 lay within 1 to 10 µM in series [2] (setting [6]) and 1 to 100 nM in series [3] (setting [8]).

Turning to `CC(F)(F)c1ncncc1-c1nc2ccc(C#N)cc2n1C1CC1` [Example 64, 1-Cyclopropyl-2-(4-(1,1-difluoroethyl)pyrimidin-5-yl)-1H-benzo[d]imidazole-6-carbonitrile], the IC50 in series [2] (setting [6]) fell in the range of 1 to 10 µM; in series [3] (setting [8]), 1 to 100 nM.

In the case of `N#Cc1ccc2nc(-c3cncnc3C(F)(F)F)n(C3CC3)c2n1` [Example 65, 3-Cyclopropyl-2-(4-(trifluoromethyl)pyrimidin-5-yl)-3H-imidazo[4,5-b]pyridine-5-carbonitrile], the IC50 in series [2] (setting [6]) lay in the range of 1 to 10 µM; in series [3] (setting [8]), 1 to 100 nM.

As to `FC(F)(F)c1ncncc1-c1nc2cc(Cl)cnc2n1C1CC1` [Example 66, 6-Chloro-3-cyclopropyl-2-(4-(trifluoromethyl)pyrimidin-5-yl)-3H-imidazo[4,5-b]pyridine], the figures for the IC50 in series [2] (setting [6]) and in series [3] (setting [8]) were greater than 10 µM and 1000 to 10000 nM, respectively.

On to `CCn1c(-c2cncnc2C(F)(F)F)nc2cc(F)c(F)cc21` [Example 67, 1-Ethyl-5,6-difluoro-2-(4-(trifluoromethyl)pyrimidin-5-yl)-1H-benzo[d]imidazole], for which the IC50 in series [2] (setting [6]) is greater than 10 µM; in series [3] (setting [8]) it was 100 to 1000 nM.

For `CCn1c(-c2cncnc2C(F)(F)F)nc2ccc(Cl)nc21` [Example 68, 5-Chloro-3-ethyl-2-(4-(trifluoromethyl)pyrimidin-5-yl)-3H-imidazo[4,5-b]pyridine], the IC50 in series [2] (setting [6]) is greater than 10 µM; in series [3] (setting [8]), 100 to 1000 nM.

Turning to `CCn1c(-c2cncnc2C(F)(F)F)nc2ccc(C#N)nc21` [Example 69, 3-ethyl-2-(4-(trifluoromethyl)pyrimidin-5-yl)-3H-imidazo[4,5-b]pyridine-5-carbonitrile], the half-inhibitory concentration (IC50) in series [2] (setting [6]) was greater than 10 µM; in series [3] (setting [8]) it was 100 to 1000 nM.

Turning to `O=C(O)c1ccc2nc(-c3cncnc3C(F)(F)F)n(C3CC3)c2c1` [Example 70, 1-Cyclopropyl-2-(4-(trifluoromethyl)pyrimidin-5-yl)-1H-benzo[d]imidazole-6-carboxylic acid], the IC50 in series [2] (setting [6]) is greater than 10 µM; in series [3] (setting [8]), greater than 10000 nM.

For the molecule `CC(F)(F)c1ncncc1-c1nc2cc(F)c(F)cc2n1C1CC1` [Example 71, 1-Cyclopropyl-2-(4-(1,1-difluoroethyl)pyrimidin-5-yl)-5,6-difluoro-1H-benzo[d]imidazole], the results for the IC50 in series [2] (setting [6]) and in series [3] (setting [8]) were 1 to 10 µM and 1 to 100 nM, respectively.

On to `Fc1cc2nc(-c3cncnc3C3CC3)n(C3CC3)c2cc1F` [Example 72, 1-Cyclopropyl-2-(4-cyclopropylpyrimidin-5-yl)-5,6-difluoro-1H-benzo[d]imidazole], for which the IC50 was greater than 10 µM in series [2] (setting [6]) and 100 to 1000 nM in series [3] (setting [8]).

Regarding `CC(C)(O)c1ncncc1-c1nc2ccc(C#N)cc2n1C1CC1` [Example 73, 1-Cyclopropyl-2-(4-(2-hydroxypropan-2-yl)pyrimidin-5-yl)-1H-benzo[d]imidazole-6-carbonitrile], the IC50 in series [2] (setting [6]) is greater than 10 µM; in series [3] (setting [8]) it was 100 to 1000 nM.
